We go through 103 molecules from PubChem BioAssay AID1996.

SMILES strings stand for the structures. ≈ marks a conversion by molar mass, not a printed value.

The conditions of this series: buffer; pH 7.4; 200.0 µM.
A word on the kinetic solubility: it is solubility judged after dilution from a stock solution rather than from solid. Regarding `COC(=O)c1ccc(CN2CCN(CC(C)C)C(CCO)C2)cc1` (stereo not drawn), the solubility (kinetic) is greater than 50.2 µg/mL. As for `C(#CC12CC3CC(CC(C3)C1)C2)CN1CCOCC1`, the figure is 17.8 µg/mL (≈ 68.6 µM). As for `O=C(O)COCC(=O)NCc1nc(-c2ccc(C(F)(F)F)cc2)no1`, the figure is greater than 53.9 µg/mL; as for `COc1ccc(CCNC(=O)COC(=O)c2cncc(Br)c2)cc1OC`, greater than 63.5 µg/mL; as for `Cc1[nH]c2ccccc2c1C(=O)C(C)OC(=O)C1CCC1` (stereo not drawn), greater than 42.8 µg/mL.

Turning to `COc1ccccc1C1CCN(C(=O)C2CCCCC2)CC1`, the kinetic solubility was found to be 38.6 µg/mL (≈ 128 µM). Consider `Cc1ccc(C)c(C(=O)CSc2nc(C)cc(=O)[nH]2)c1`, for which the kinetic solubility was found to be 27.5 µg/mL (≈ 95.4 µM). The result for `COC(=O)C(Cc1ccccc1)NC(=O)CCC(=O)NC(C)CCc1ccccc1` (stereo not drawn) reads greater than 61.6 µg/mL.

In turn, `Cc1cc(C)cc(NC(=O)Nc2cc(S(=O)(=O)N(C)C)ccc2C)c1` returned a solubility (kinetic) of 0.6 µg/mL (≈ 1.66 µM). The result for `COc1ccccc1NC(=O)Nc1sccc1-c1nc2ccccc2s1` reads 2.8 µg/mL (≈ 7.34 µM); that for `CN(C(=O)c1ccc2c(c1)CCO2)C(C)(C)C`, 23.9 µg/mL (≈ 102 µM); that for `N#Cc1cccc(NC(=O)COC(=O)c2ccc[n+]([O-])c2)c1`, greater than 44.6 µg/mL.

On to `Cc1[nH]c2ccccc2c1C(=O)COC(=O)c1ccccc1O`, for which the solubility (kinetic) worked out at 4.6 µg/mL (≈ 14.9 µM). `CCCN1CCC[C@H](c2cccc(O)c2)C1.Cl` came in with a solubility (kinetic) greater than 38.4 µg/mL. As for `CCOC(=O)c1c(NC(=O)COC(=O)C2CC2C)sc(C)c1C` (stereo not drawn), the solubility (kinetic) is less than 0.7 µg/mL. As for `CCN(C(=O)COC(=O)c1[nH]c(=O)[nH]c(=O)c1N)c1ccccc1`, the figure is 39.3 µg/mL (≈ 118 µM). Take `CC(C)COP(=O)(c1ccc(N(C)C)cc1)C(O)c1ccccc1` (stereo not drawn): the kinetic solubility was greater than 52.1 µg/mL. As for `CCc1nc(SCC(=O)Nc2cccc3ccccc23)[nH]c(=O)c1C`, the figure is 1.8 µg/mL (≈ 5.09 µM). The result for `C/C(=N\O)c1c(O)cc(-c2ccccc2)n(-c2ccccc2)c1=O` reads greater than 48.1 µg/mL. The result for `CC1CCCCC1NC(=O)CN1C(=O)c2ccccc2S1(=O)=O` (stereo not drawn) reads 25.7 µg/mL (≈ 76.4 µM); that for `CCCCOc1c(Br)cc(CNCCCN2CCOCC2)cc1OC.Cl`, 60.9 µg/mL. In the case of `O=C(/C=C/c1cccc([N+](=O)[O-])c1)N1CCN(Cc2ccccc2)CC1`, the kinetic solubility was found to be 50.9 µg/mL (≈ 145 µM). This solubility kinetic and that of the molecule before are within 1.5-fold of each other. `O=C(c1ccccc1F)N1CCN=C1c1ccccc1` registered a solubility (kinetic) of 36.2 µg/mL (≈ 135 µM).

In turn, `Cc1ccc(NC(=O)CN2CCc3ccccc3C2)cc1F` had a solubility (kinetic) of 23.1 µg/mL (≈ 77.4 µM).

In turn, `NC(Cc1ccc(OC(F)F)cc1)C(=O)O` (stereo not drawn) showed a kinetic solubility of 32.7 µg/mL (≈ 141 µM). As for `COc1ccc(Cc2n[nH]c(=S)n2N)cc1OC`, the figure is greater than 39.9 µg/mL; as for `CCOc1ccc(C=NCC(O)c2ccccc2)cc1` (stereo not drawn), 37 µg/mL (≈ 137 µM). The result for `CSc1ncccc1C(=O)OCC(=O)NC12CC3CC(CC(C3)C1)C2` reads 21.8 µg/mL (≈ 60.5 µM). As for `Cc1ccc(Cl)cc1NS(=O)(=O)N1CCOCC1`, the figure is greater than 43.6 µg/mL; as for `O=C(CN1C(=O)C(=O)N(C2CCCC2)C1=O)NCCc1ccc(F)cc1`, greater than 54.2 µg/mL; as for `Nc1c(N(CCCO)C(=O)C2CCCCC2)c(=O)[nH]c(=O)n1Cc1ccccc1`, greater than 60.1 µg/mL. On to `Cc1ccc(S(=O)(=O)N2CCN(C(=O)C3CCCO3)CC2)cc1` (stereo not drawn), for which the solubility (kinetic) turned out to be 49.8 µg/mL (≈ 147 µM). As for `Cc1cc(Nc2ccc(C)c(C)c2)c2ccccc2n1`, the figure is greater than 39.4 µg/mL; as for `O=C(O)CNC(=O)c1ccc(N2CCOCC2)cc1[N+](=O)[O-]`, greater than 46.4 µg/mL; as for `Cc1ccc(S(N)(=O)=O)c(C)c1N1CCCC1=O`, greater than 40.2 µg/mL. As for `CCC(C)NC(=O)c1cc2c(=O)n3ccccc3nc2s1` (stereo not drawn), the figure is 33 µg/mL (≈ 109 µM); as for `CC(C)c1ccc(NC(=O)Nc2cnccn2)cc1`, 3.9 µg/mL (≈ 15.2 µM); as for `CC(C(O)c1cc(=O)c(OCc2ccccc2)co1)[N+](=O)[O-]` (stereo not drawn), 33.1 µg/mL (≈ 108 µM).

In the case of `O=C(c1ccc2ccccc2n1)N(CCO)Cc1ccccc1`, the solubility (kinetic) is 41.4 µg/mL (≈ 135 µM). As for `CCC(=O)N1CCN=C1SCc1c(F)cccc1Cl`, the figure is 12.6 µg/mL (≈ 41.9 µM); as for `Cc1cc(OCC(=O)NC2CC2)c2c(C)c(C)c(=O)oc2c1`, 2.5 µg/mL (≈ 8.3 µM); as for `CCc1ccc(NC(=O)C(C)OC(=O)Cc2cc(OC)c(OC)c(OC)c2)cc1` (stereo not drawn), greater than 60.2 µg/mL. As for `CCc1nonc1NC(=O)c1oc2ccccc2c1C`, the figure is 3.1 µg/mL (≈ 11.4 µM); as for `CC1NC(=S)N(C2CCCCC2)C1=O` (stereo not drawn), greater than 31.8 µg/mL; as for `CN1CCN(C(=O)CSc2nc3c(c(=O)n(C)c(=O)n3C)n2C)CC1`, 48.1 µg/mL (≈ 131 µM). As for `O=C(COc1ccccc1)Nc1ccc(Cl)cn1`, the figure is 12.7 µg/mL (≈ 48.3 µM); as for `CNC(=S)N1CCC(c2nc3ccccc3s2)CC1`, greater than 43.7 µg/mL. Take `CSc1ccc(CNCc2ccco2)cc1.Cl`: the kinetic solubility is greater than 40.5 µg/mL. `CCN(CC)C(=O)C12CC3CC(CC(Br)(C3)C1)C2` showed a kinetic solubility of 32.7 µg/mL (≈ 104 µM). As for `COc1ccc(Cl)cc1NC(=S)Nc1ccc(Cl)cn1`, the figure is 0.2 µg/mL (≈ 0.609 µM); as for `CC1CCCN(C(=O)Cc2cccc3ccccc23)C1` (stereo not drawn), 38.3 µg/mL (≈ 143 µM). As for `O=C1NCCCCC1NS(=O)(=O)c1ccc(F)c(F)c1` (stereo not drawn), the figure is 43.1 µg/mL (≈ 142 µM). As for `Cc1cc(C)cc(NC(=O)C2CCN(c3cnccn3)CC2)c1`, the figure is 13.7 µg/mL (≈ 44.1 µM). For the molecule `Cc1c(NC2=CC(=O)CC(C)(C)C2)c(=O)n(-c2ccccc2)n1C`, the solubility (kinetic) was greater than 48.8 µg/mL. The result for `COc1cccc(NC(=O)c2sc(Cl)nc2C)c1` reads greater than 42.4 µg/mL; that for `COc1ccc(OCCN2C(=O)c3ccccc3C2=O)c([N+](=O)[O-])c1`, 1 µg/mL (≈ 2.92 µM). The result for `O=C(Oc1ccc(C(=S)N2CCOCC2)cc1)c1ccccc1F` reads 36.6 µg/mL (≈ 106 µM); that for `CC1(C2CC2)NC(=O)N(CC(=O)Nc2ccccc2C#N)C1=O` (stereo not drawn), greater than 46.8 µg/mL.

`CCOc1ccc(NC(=O)C2CC3CCC2C3)cc1` (stereo not drawn) returned a kinetic solubility of 6.1 µg/mL (≈ 23.5 µM). On to `CCN(CC(=O)NC1CCS(=O)(=O)C1)S(=O)(=O)c1ccccc1Cl` (stereo not drawn), for which the solubility (kinetic) was greater than 59.2 µg/mL. Consider `CCN(CC)Cc1nc2c(c(=O)[nH]1)C(CC)(CC)Cc1ccccc1-2`, for which the solubility (kinetic) is 1.7 µg/mL (≈ 5.01 µM). As for `CC(=O)Nc1nc(C)c(Oc2cccc(C(F)(F)F)c2)c(=O)[nH]1`, the figure is 45.1 µg/mL (≈ 138 µM); as for `NS(=O)(=O)c1ccc(CCNC(=O)c2cnccn2)cc1`, greater than 46 µg/mL; as for `O=C(CNC(=O)c1ccc(Br)o1)NCc1ccc(F)cc1`, greater than 53.3 µg/mL. The result for `CC(C)C(C)(C#N)NC(=O)CN1C(=O)NC2(CCCc3ccccc32)C1=O` (stereo not drawn) reads greater than 55.3 µg/mL; that for `N#C/C(=C(O)\C=C\c1ccccc1)c1nc2ccccc2[nH]1`, less than 0.2 µg/mL. As for `CN(Cc1ccco1)C(=O)CCc1nc2sc3c(c2c(=O)[nH]1)CCCC3`, the figure is 22.4 µg/mL (≈ 60.3 µM); as for `CCC(=O)OCC(=O)Nc1ccc2c(c1)OCO2`, greater than 37.7 µg/mL. The molecule `CN(c1ccccc1)S(=O)(=O)c1ccc(C(=O)NCc2ccccc2F)cc1` yielded a kinetic solubility of 10.4 µg/mL (≈ 26.1 µM). Molecule `CC(C)C(=O)NC(=O)COC(=O)/C=C/c1cccs1` registered a kinetic solubility of 21.6 µg/mL (≈ 76.8 µM). On to `O=C(OCc1ccccc1)c1cnc(Cl)c(Cl)c1`, for which the solubility (kinetic) stood at 2.1 µg/mL (≈ 7.44 µM). With `CCOC(=O)c1cc(C#N)c(=S)[nH]c1C`, the kinetic solubility turned out to be 33.1 µg/mL (≈ 149 µM). Turning to `O=S(=O)(Cc1ccccc1)NCCc1cccc(Cl)c1`, the kinetic solubility worked out at 40.5 µg/mL (≈ 131 µM). The result for `C/C(=N/OC(=O)c1ccc(Cl)cc1Cl)c1oc(C)nc1C` reads 1.9 µg/mL (≈ 5.81 µM); that for `Clc1cccc(-c2csc(Nc3cccnc3)n2)c1`, less than 0.2 µg/mL; that for `Cc1ccc(C(=O)NC2CCCCNC2=O)cc1C` (stereo not drawn), greater than 39.1 µg/mL. `O=C1C2CCCCC2C(=O)N1c1nccs1` (stereo not drawn) returned a solubility (kinetic) greater than 35.4 µg/mL.

On to `Cc1cc(C(=O)N2CCN(Cc3ccccc3)CC2)ccc1[N+](=O)[O-]`, for which the kinetic solubility is greater than 50.9 µg/mL.

The molecule `COc1ccc(N2C(=O)CC(N3CCCCC3)C2=O)cc1` (stereo not drawn) came in with a kinetic solubility greater than 43.3 µg/mL.

Turning to `O=[N+]([O-])c1ccc(CSC2=NCCS2)cc1`, the solubility (kinetic) is 16.1 µg/mL (≈ 63.3 µM).

Turning to `COc1ccc(NC(=O)[C@@H](NC(N)=O)C(C)C)cc1Cl`, the solubility (kinetic) was greater than 45 µg/mL. As for `CCN(CC(=O)Nc1ccccc1OC)C(=O)CCc1ccccc1`, the figure is 46 µg/mL (≈ 135 µM). The result for `C=CCNC(=O)c1ccc(S(=O)(=O)CC)c(Cl)c1Cl` reads greater than 48.3 µg/mL.

Molecule `Cc1ccc2nc(SCC(=O)NCc3ccc(F)cc3)[nH]c2c1` had a kinetic solubility of 22.4 µg/mL (≈ 68 µM).

In the case of `Cc1ccc(-c2nc(CN(C)C3CCOC3)c(C)o2)s1` (stereo not drawn), the kinetic solubility was greater than 43.9 µg/mL.

Molecule `O=C(COC(=O)c1ccccc1Br)Nc1cccnc1Cl` returned a solubility (kinetic) of 18.2 µg/mL (≈ 49.2 µM). In turn, `COc1ccc2c(c1OC)C(=O)N(c1ccc(F)cc1)C2` had a kinetic solubility of 3.8 µg/mL (≈ 13.2 µM). As for `O=C(N/C(=C\c1ccco1)C(=O)N1CCC(O)CC1)c1ccccc1`, the figure is 41.1 µg/mL (≈ 121 µM); as for `CCOCCCNC(=O)c1c[nH]c2ccc(OCC)cc2c1=O`, 31.4 µg/mL (≈ 98.6 µM). The result for `CCOc1ccccc1NC(=O)CCNC(=O)c1ccc(Cl)cc1` reads 5.6 µg/mL (≈ 16.1 µM). As for `CC(OC(=O)CC1CCCCC1)C(=O)Nc1ccc(F)cc1` (stereo not drawn), the figure is 1.2 µg/mL (≈ 3.9 µM); as for `O=C(COC(=O)c1ccc([N+](=O)[O-])o1)NCCCc1ccccc1`, greater than 49.8 µg/mL; as for `O=C(O)c1cccc(S(=O)(=O)Nc2ccc(Cc3ccncc3)cc2)c1`, greater than 55.3 µg/mL.

For the molecule `Cc1[nH]c2nc3ccccc3n2c(=O)c1CCC(C)C`, the kinetic solubility was less than 0.2 µg/mL. The result for `COc1ccc(Nc2nnc(SC(C)C(=O)NC3CC3)s2)cc1` (stereo not drawn) reads greater than 52.6 µg/mL. As for `CCN(CC(=O)Nc1ccccc1OC)Cc1csc(CC(=O)Nc2ccc(C)cc2)n1`, the figure is 19 µg/mL (≈ 42 µM).

For `Cc1ccc(-n2ccnc2SCC(=O)O)cc1C`, the kinetic solubility was greater than 39.3 µg/mL. `COc1cc([N+](=O)[O-])ccc1NC(=O)Nc1ccc2c(c1)OCCO2` gave a kinetic solubility of less than 0.2 µg/mL. The molecule `O=C(CN1C(=O)c2ccccc2C1=O)Nc1ccccc1N1CCOCC1` returned a solubility (kinetic) greater than 54.8 µg/mL. As for `CC(C)c1ccc(C(N)=S)cc1`, the figure is 25.3 µg/mL (≈ 141 µM); as for `C=CCn1c(SCC#N)nc2sc(CC)cc2c1=O`, 7 µg/mL (≈ 24 µM). The result for `CCc1ccc(C(=O)OCC(=O)N2CCCCCC2)cc1` reads 14.5 µg/mL (≈ 50.1 µM); that for `CC(C)c1nc(SCC(=O)Nc2nccs2)c2ccccc2n1`, 0.6 µg/mL (≈ 1.74 µM).
